Structures are written as SMILES.

For the assay, the target named is T1, NLRP3 (Homo sapiens, UniProt Q96P20).
T1 construct: host or cells: THP-1 cells differentiated with PMA
T1 sequence (Q96P20 whole entry): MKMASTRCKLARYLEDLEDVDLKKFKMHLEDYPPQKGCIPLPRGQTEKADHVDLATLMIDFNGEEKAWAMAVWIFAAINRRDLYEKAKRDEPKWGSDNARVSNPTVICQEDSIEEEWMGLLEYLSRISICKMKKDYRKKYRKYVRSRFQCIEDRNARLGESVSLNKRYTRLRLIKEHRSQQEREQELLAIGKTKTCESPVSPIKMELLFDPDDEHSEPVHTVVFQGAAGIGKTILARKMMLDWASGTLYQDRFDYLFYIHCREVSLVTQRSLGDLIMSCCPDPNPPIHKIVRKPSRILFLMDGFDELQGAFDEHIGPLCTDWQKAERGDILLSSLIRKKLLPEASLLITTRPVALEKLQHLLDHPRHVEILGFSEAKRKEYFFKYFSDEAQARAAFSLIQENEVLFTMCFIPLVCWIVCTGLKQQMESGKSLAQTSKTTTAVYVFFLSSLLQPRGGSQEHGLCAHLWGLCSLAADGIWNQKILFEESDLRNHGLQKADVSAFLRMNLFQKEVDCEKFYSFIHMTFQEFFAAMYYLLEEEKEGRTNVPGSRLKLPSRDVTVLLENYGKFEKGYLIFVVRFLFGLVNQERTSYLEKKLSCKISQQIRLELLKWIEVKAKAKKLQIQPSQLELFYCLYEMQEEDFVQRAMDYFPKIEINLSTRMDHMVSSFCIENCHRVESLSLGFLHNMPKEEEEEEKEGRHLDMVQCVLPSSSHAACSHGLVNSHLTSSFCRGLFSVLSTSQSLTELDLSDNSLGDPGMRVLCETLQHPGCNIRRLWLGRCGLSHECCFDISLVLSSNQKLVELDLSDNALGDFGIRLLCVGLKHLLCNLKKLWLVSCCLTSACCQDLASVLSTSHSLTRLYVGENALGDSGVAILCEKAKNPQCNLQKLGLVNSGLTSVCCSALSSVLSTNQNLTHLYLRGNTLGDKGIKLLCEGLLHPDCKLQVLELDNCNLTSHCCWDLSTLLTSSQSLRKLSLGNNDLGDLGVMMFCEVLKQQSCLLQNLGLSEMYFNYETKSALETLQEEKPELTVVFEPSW
As to the kind of experiment: IL-1β Secretion Assay (NLRP3-dependent IL1β secretion in THP1 cells). The note with it: PMA-differentiated THP-1 cells; compounds incubated 20 h; 2.5 μM Nigericin 3 h; HTRF IL-1β readout; read-out: IC50 IL-1β Inhibition. It counts as cell-based. The procedure, abridged: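 IL-1β in conditioned media, measured by HTRF after 3 h 2.5 μM nigericin stimulation, gave % inhibition fitted logistically for IC50. Before that, PMA-differentiated (100 ng/mL, 24 h) THP-1 cells were preincubated 20 h with 7 compound concentrations (3-fold serial, DMSO 1:200).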
(In TR-FRET formats the signal depends on donor and acceptor labels being close together.)
The term IC50 denotes the midpoint of a concentration-inhibition curve. As for `C[C@]1(O)C[C@@H](Nc2nnc(-c3ccc(C4CC4)cc3OC(F)(F)F)c3cncn23)C1` [Compound 346, (1s,3s)-3-({1-[4-cyclopropyl-2-(trifluoromethoxy)phenyl]imidazo[1,5-d][1,2,4]triazin-4-yl}amino)-1-methylcyclobutan-1-ol], the 50% inhibitory concentration (IC50) lay in the range of 1 to 10 nM.
As for `C[C@]1(CO)C[C@@H](Nc2nnc(-c3ccc(C(F)(F)F)cc3CC(F)(F)F)c3cncn23)C1` [Compound 343, [(1s,3s)-1-methyl-3-({1-[2-(2,2,2-trifluoroethyl)-4-(trifluoromethyl)phenyl]imidazo[1,5-d][1,2,4]triazin-4-yl}amino)cyclobutyl]methanol], the figure is less than 1 nM.
With `COc1ccc(-c2nnc(N[C@@H]3CCCN(C)C3)n3cncc23)c(OC(F)(F)F)c1` [Compound 208, 1-[4-methoxy-2-(trifluoromethoxy)phenyl]-N-[(3R)-1-methylpiperidin-3-yl]imidazo[1,5-d][1,2,4]triazin-4-amine] the figure was less than 1 nM; with `O[C@@H]1CCCC[C@H]1Nc1nnc(-c2ccc(C(F)(F)F)cc2C(F)(F)F)c2ccnn12` [Compound 394, (1R,2R)-2-({4-[2,4-bis(trifluoromethyl)phenyl]pyrazolo[1,5-d][1,2,4]triazin-7-yl}amino)cyclohexan-1-ol], 1 to 10 nM; with `CCN1C[C@H](F)C[C@@H](Nc2nnc(-c3ccc(C(F)(F)F)cc3OC(F)F)c3cc(C)nn23)C1` [Compound 356, 4-[2-(difluoromethoxy)-4-(trifluoromethyl)phenyl]-N-[(3R,5R)-1-ethyl-5-fluoropiperidin-3-yl]-2-methylpyrazolo[1,5-d][1,2,4]triazin-7-amine], less than 1 nM.
With `C[C@]1(O)C[C@@H](Nc2nnc(-c3ccc(OC(F)F)cc3OC(F)(F)F)c3cccn23)C1` [Compound 88, (1s,3s)-3-({1-[4-(difluoromethoxy)-2-(trifluoromethoxy)phenyl]pyrrolo[1,2-d][1,2,4]triazin-4-yl}amino)-1-methylcyclobutan-1-ol] the figure was 1 to 10 nM; with `COc1ccc(-c2nnc(NC[C@@H]3CCCN3C)n3cccc23)c(OC(F)(F)F)c1` [Compound 74, 1-[4-methoxy-2-(trifluoromethoxy)phenyl]-N-{[(2S)-1-methylpyrrolidin-2-yl]methyl}pyrrolo[1,2-d][1,2,4]triazin-4-amine], 10 to 100 nM.

(Values after US20250179078A1, “INHIBITORS OF NLRP3” (PTC THERAPEUTICS, INC., priority 2022, published 2025).)
